Laboratory results: patent US20170044208A1, “SELECTIVE GLUCOCORTICOID RECEPTOR LIGANDS” (The University of Manchester, priority 2013, published 2017)
Where two headings read alike, the source gives them in different places.

Legend:
NFkB = experiment: Transrepression assay (NFκB-LUC reporter in HeLa cells, TNF stimulated); format: cell-based; conditions: for Emax / IC50: Homo sapiens, HeLa; for Emax: 16 h, read-out: TR Max %
Procedure: HeLa cells were seeded at 80×10^4 cells/dish in 100 mm dishes. Cells were transfected the next day with NFκB-LUC reporter (5 μg) and pGL4-hRLuc (0.1 μg), in 0.25 mL of Opti-MEM I using FuGENE HD (15 μL). After 24 hours, cells were trypsinized and seeded in to 24-well plates at a density of 8-10×10^4 cells/mL. Following overnight incubation, cells were starved for a further 24 hours in DMEM.
On the day of the experiment, compounds were added to cells one hour prior to the addition of […] (0.5 ng/mL). After a further 16 hours, cells were washed twice with ice-cold PBS, then lysed with 100 μL of 1×PLB.
(§1) Firefly and Renilla luciferase activity was measured using the Dual Luciferase Reporter system following the manufacturer's protocol.
(§2) IC50 and EC50 values were calculated by using GraphPad Prism 5.0. Briefly, luminescence values for luciferase were normalised using the Renilla luminescence values. The normalised values were input into GraphPad Prism 5.0. Non-linear regression analysis was carried out using the “log(concentration) vs. response” equation of the software, with a Hill slope coefficient fixed at 1.
(§3) IC50 and EC50 values are mean values in nM of all IC50/EC50 values for the compound. Max % values are mean values of the Max% activity.

[1] = target: T1, Glucocorticoid Receptor (GR) (Homo sapiens, UniProt P04150); experiment: Transactivation assay (MMTV-Luc reporter in HeLa cells); format: cell-based; conditions: for Emax / EC50: HeLa; for Emax: 16 h, read-out: TA Max %; for EC50: concentration for half-maximal transactivation, MMTV-Luc, 16 hours, mean, read-out: TA EC50
T1 construct: Cells were transfected the next day with MMTV-Luc (5 μg) and pGL4-hRLuc (0.1 μg); endogenous in cells; host or cells: HeLa
T1 sequence (P04150 1-777): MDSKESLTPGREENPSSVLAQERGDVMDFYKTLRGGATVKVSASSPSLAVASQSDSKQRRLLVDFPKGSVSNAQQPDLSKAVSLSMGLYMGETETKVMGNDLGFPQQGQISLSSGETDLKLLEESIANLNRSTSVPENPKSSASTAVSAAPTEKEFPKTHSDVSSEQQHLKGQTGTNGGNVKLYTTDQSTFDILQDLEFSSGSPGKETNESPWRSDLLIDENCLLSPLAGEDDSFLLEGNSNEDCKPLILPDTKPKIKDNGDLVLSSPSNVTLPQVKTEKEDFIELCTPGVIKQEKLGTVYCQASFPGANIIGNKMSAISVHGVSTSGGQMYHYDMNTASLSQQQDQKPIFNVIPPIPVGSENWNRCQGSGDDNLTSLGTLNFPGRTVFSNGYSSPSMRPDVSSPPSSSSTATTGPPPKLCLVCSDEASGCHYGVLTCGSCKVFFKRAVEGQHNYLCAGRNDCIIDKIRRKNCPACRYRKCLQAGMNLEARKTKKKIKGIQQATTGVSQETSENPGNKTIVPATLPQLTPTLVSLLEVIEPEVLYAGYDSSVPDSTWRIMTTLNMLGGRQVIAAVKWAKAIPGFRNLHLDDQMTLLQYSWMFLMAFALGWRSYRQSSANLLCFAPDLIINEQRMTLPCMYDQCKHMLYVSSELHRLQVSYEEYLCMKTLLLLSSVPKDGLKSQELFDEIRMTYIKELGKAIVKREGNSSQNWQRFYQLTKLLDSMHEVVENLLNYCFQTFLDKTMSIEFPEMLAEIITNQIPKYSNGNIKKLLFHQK
Procedure: HeLa cells were seeded at 80×10^4 cells/dish in 100 mm dishes. Cells were transfected the next day with MMTV-Luc (5 μg) and pGL4-hRLuc (0.1 μg), in 250 μL of Opti-MEM I using FuGENE HD (15 μL). After 24 hours, cells were trypsinized and seeded into 96-well plates at a density of 8-10×10^4 cells/mL.
Following overnight incubation to allow attachment, cells were treated with the required concentration of compounds, then further incubated for 16 hours. Media was aspirated and cells lysed in 40 μL of 1×PLB.
as §1, §2, §3

[2] = concentration for half-maximal repression of NFkB, TNF 0.5 ng/mL, 16 hours, mean, read-out: TR IC50

Row | SMILES | Emax (NFkB) | IC50 (NFkB; [2]) | Emax [1] | EC50 [1] | IC50 (NFkB; comparison table, half-maximal repression of NFkB, multiple experiments, read-out: IC50) | TR % (NFkB; comparison table, maximal NFkB repression compared to Dexamethasone) | TA % ([1]; comparison table, against maximal activation seen with dexamethasone)
1 | C[C@@H]1C[C@H]2[C@@H]3CCC4=CC(=O)C=C[C@]4(C)[C@@]3(F)[C@@H](O)C[C@]2(C)[C@@]1(O)c1csc(NC(=O)c2ccccc2F)n1 [Compound 28] | 36% | 120 nM | 0% | 29400 nM | – | – | –
2 | COc1cccc(C(=O)Nc2nc([C@@]3(O)[C@H](C)C[C@H]4[C@@H]5CCC6=CC(=O)C=C[C@]6(C)[C@@]5(F)[C@@H](O)C[C@@]43C)cs2)c1 [Compound 29] | 44.2% | 7.96 nM | 0.67% | 19400 nM | – | – | –
3 | C[C@@H]1C[C@H]2[C@@H]3CCC4=CC(=O)C=C[C@]4(C)[C@@]3(F)[C@@H](O)C[C@]2(C)[C@@]1(O)c1csc(NC(=O)c2ccc(C(F)(F)F)cc2)n1 [Compound 30] | 41.3% | 35.5 nM | 7.43% | 1410 nM | – | – | –
4 | C[C@@H]1C[C@H]2[C@@H]3CCC4=CC(=O)C=C[C@]4(C)[C@@]3(F)[C@@H](O)C[C@]2(C)[C@@]1(O)c1csc(NC(=O)c2ccncc2)n1 [Compound 31] | 37.5% | 11.2 nM | 0% | – | – | – | –
5 | C[C@@H]1C[C@H]2[C@@H]3CCC4=CC(=O)C=C[C@]4(C)[C@@]3(F)[C@@H](O)C[C@]2(C)[C@@]1(O)c1csc(NC(=O)c2cccnc2)n1 [Compound 32] | 28.5% | 55.2 nM | 0.03% | 2230 nM | – | – | –
6 | C[C@@H]1C[C@H]2[C@@H]3CCC4=CC(=O)C=C[C@]4(C)[C@@]3(F)[C@@H](O)C[C@]2(C)[C@@]1(O)c1csc(NC(=O)c2ncco2)n1 [Compound 33] | 32.7% | 66.9 nM | 0% | – | – | – | –
7 | COc1ccc(C(=O)Nc2nc([C@@]3(O)[C@H](C)C[C@H]4[C@@H]5CCC6=CC(=O)C=C[C@]6(C)[C@@]5(F)[C@@H](O)C[C@@]43C)cs2)cc1 [Compound 34] | 51.8% | 4.76 nM | 0% | 17500 nM | – | – | –
8 | C[C@@H]1C[C@H]2[C@@H]3CCC4=CC(=O)C=C[C@]4(C)[C@@]3(F)[C@@H](O)C[C@]2(C)[C@@]1(O)c1csc(NC(=O)c2cncs2)n1 [Compound 35] | 35.9% | 44.8 nM | 0.23% | 4180 nM | – | – | –
9 | C[C@@H]1C[C@H]2[C@@H]3CCC4=CC(=O)C=C[C@]4(C)[C@@]3(F)[C@@H](O)C[C@]2(C)[C@@]1(O)c1csc(NC(=O)c2cscn2)n1 [Compound 36] | 33.6% | 10.6 nM | 1.19% | 5520 nM | – | – | –
10 | C[C@@H]1C[C@H]2[C@@H]3CCC4=CC(=O)C=C[C@]4(C)[C@@]3(F)[C@@H](O)C[C@]2(C)[C@@]1(O)c1csc(NC(=O)c2ccc[nH]2)n1 [Compound 37] | 31.4% | 17.9 nM | 3.22% | 2770 nM | – | – | –
11 | C[C@@H]1C[C@H]2[C@@H]3CCC4=CC(=O)C=C[C@]4(C)[C@@]3(F)[C@@H](O)C[C@]2(C)[C@@]1(O)c1csc(NC(=O)CCc2ccc(F)cc2)n1 [Compound 38] | 65.5% | 31.2 nM | 2.48% | 24400 nM | – | – | –
12 | C[C@@H]1C[C@H]2[C@@H]3CCC4=CC(=O)C=C[C@]4(C)[C@@]3(F)[C@@H](O)C[C@]2(C)[C@@]1(O)c1csc(NC(=O)c2ccc3ncsc3c2)n1 [Compound 39] | 19% | 8.34 nM | 0.96% | 1160 nM | – | – | –
13 | C[C@@H]1C[C@H]2[C@@H]3CCC4=CC(=O)C=C[C@]4(C)[C@@]3(F)[C@@H](O)C[C@]2(C)[C@@]1(O)c1csc(NC(=O)c2ccccn2)n1 [Compound 40] | 19% | 8.34 nM | 1.34% | 16900 nM | – | – | –
14 | C[C@@H]1C[C@H]2[C@@H]3CCC4=CC(=O)C=C[C@]4(C)[C@@]3(F)[C@@H](O)C[C@]2(C)[C@@]1(O)c1csc(NC(=O)c2cnco2)n1 [Compound 41] | 26% | 41.8 nM | 1.27% | 10300 nM | – | – | –
15 | COc1ccc(CNc2nc([C@@]3(O)[C@H](C)C[C@H]4[C@@H]5CCC6=CC(=O)C=C[C@]6(C)[C@@]5(F)[C@@H](O)C[C@@]43C)cs2)cc1 [Compound 42] | 51.1% | 199 nM | 0.56% | 392 nM | – | – | –
16 | C[C@@H]1C[C@H]2[C@@H]3CCC4=CC(=O)C=C[C@]4(C)[C@@]3(F)[C@@H](O)C[C@]2(C)[C@@]1(O)c1csc(N(C)C(=O)c2ccc(F)cc2)n1 [Compound 43] | 61% | 155 nM | 1.63% | 86200 nM | – | – | –
17 | C[C@@H]1C[C@H]2[C@@H]3CCC4=CC(=O)C=C[C@]4(C)[C@@]3(F)[C@@H](O)C[C@]2(C)[C@@]1(O)c1csc(NC(=O)c2ccc(F)c(F)c2)n1 [Compound 44] | 41.8% | 28.6 nM | 14.6% | 914 nM | – | – | –
18 | Cc1ccc(C(=O)Nc2nc([C@@]3(O)[C@H](C)C[C@H]4[C@@H]5CCC6=CC(=O)C=C[C@]6(C)[C@@]5(F)[C@@H](O)C[C@@]43C)cs2)cc1 [Compound 45] | 42.3% | 20.2 nM | 5.74% | 8480 nM | – | – | –
19 | CCOc1ccc(C(=O)Nc2nc([C@@]3(O)[C@H](C)C[C@H]4[C@@H]5CCC6=CC(=O)C=C[C@]6(C)[C@@]5(F)[C@@H](O)C[C@@]43C)cs2)cc1 [Compound 46] | 55.1% | 27 nM | 9.95% | 6650 nM | – | – | –
20 | C[C@@H]1C[C@H]2[C@@H]3CCC4=CC(=O)C=C[C@]4(C)[C@@]3(F)[C@@H](O)C[C@]2(C)[C@@]1(O)c1csc(NC(=O)c2ccc(F)nc2)n1 [Compound 47] | 48% | 22.9 nM | 7.41% | 669 nM | – | – | –
21 | C[C@@H]1C[C@H]2[C@@H]3CCC4=CC(=O)C=C[C@]4(C)[C@@]3(F)[C@@H](O)C[C@]2(C)[C@@]1(O)C(=O)CO [Dex, dexamethasone, reference compound] | – | – | – | – | 2.86 nM | 100% | 100%
